This test concerns Salmonella Typhi PhoP-promoter GFP reporter, fluorescence, 4 h. In words: PhoP regulon inhibitors, Salmonella typhi PhoP promoter GFP reporter, confirmatory (AID 1850).
Usually IC50 stands for the concentration that inhibits the measured activity by half. For `N/C(=N\OS(=O)(=O)c1ccccc1)c1cccnc1`, the IC50 was 14.2 µM. To `CCCCOc1ccc(CSC(=N)N)cc1Cl` belongs 77.7 µM. To `CCCCn1c(=N)n(CC(=O)c2ccc(Br)s2)c2ccccc21` belongs 51.4 µM.

In the case of `O=C(N/N=C\C=C\c1ccc([N+](=O)[O-])o1)c1cccs1`, the IC50 was 18.7 µM.

For `c1ccc(CN2CCC(Nc3nc(-c4cccs4)nc4ccccc34)CC2)cc1`, the IC50 was 21.5 µM.

Turning to `COc1ccccc1Nc1nc(NCc2ccco2)c2ccccc2n1`, the concentration for half-maximal inhibition (IC50) is 19.6 µM. Take `Clc1ccc(OCCCNCc2ccccc2)c2ccccc12`: the IC50 is 19.2 µM. To `COc1ccc(N2CC(C(=O)N/N=C/c3cc([N+](=O)[O-])ccc3O)CC2=O)cc1` (centres undefined) belongs 134 µM; to `CCN1/C(=C/C=C/C=C/c2sc3ccccc3[n+]2CC)Sc2ccccc21`, 13.2 µM. To `CN1CCN(C(c2cccc(Cl)c2)c2ccccc2Cl)CC1` (centres undefined) belongs 103 µM. To `CCn1cc(C(=O)NCCCN(C)C)c(=O)c2cc(F)c(N3CCN(C)CC3)cc21` belongs 20.4 µM; to `OC(CN1CCCCC1)Cn1c2ccccc2c2cc(Br)ccc21` (centres undefined), 69.7 µM. With `O=C(Cc1ccc([N+](=O)[O-])cc1)N/N=C/c1ccc([N+](=O)[O-])o1`, the IC50 is 19.9 µM. To `Clc1ccc(Nc2ccc(NCc3ccccc3)nn2)cc1` belongs 101 µM; to `Oc1c(CN2CCN(c3ccccn3)CC2)cc(Cl)c2cccnc12`, 29.6 µM; to `CCOC(=O)Cn1c(=N)n(CCOc2ccc3ccccc3c2)c2ccccc21`, 53.1 µM. For `CCCCCCCCCCOC(=O)C[N+](C)(C)CC1CCCCC1O` (centres undefined), the half-inhibitory concentration (IC50) was 34.9 µM.

Regarding `CC(C)[C@@H]1CC[C@@H](C)C[C@H]1OC(=O)C[n+]1cc(-c2ccc(Cl)cc2)n2c1CCCCC2`, the IC50 was 67.2 µM. To `COc1ccc(Nc2nc(NCC3CCCO3)c3ccccc3n2)c(OC)c1` (centres undefined) belongs 37 µM; to `CCCOc1ccc(C(=O)NNC(=S)NC(C)=O)cc1`, 35.5 µM; to `Cc1ccc(NC(=O)CNCc2ccccc2)cc1Br`, 52.9 µM. Under `O=C1C=C(Nc2ccccc2O)c2ccccc2C1=O` stands 54.5 µM; under `O=C(CSc1ccccn1)N/N=C/c1c[nH]c2ccccc12`, 117 µM; under `CCCCCCCCCCCCCCCC[N+](C)(C)CCN(Cc1ccc(OC)cc1)c1ncccn1`, 19.3 µM.

Regarding `C#CCOCCOCCOCCNc1nc(N2CCN(C(=O)CCCCCCCCCCNC(=O)[C@@H](CCSC)n3cc(CCO)nn3)CC2)nc(N2CCN(C(=O)CCCCCCCCCCNC(=O)[C@H]([C@@H](C)CC)n3cc(CCCCN=C(N)N)nn3)CC2)n1`, the IC50 was 82.7 µM. As for `O=C(C[n+]1cnn(CC(=O)c2ccc(Cl)cc2Cl)c1)c1ccc([N+](=O)[O-])cc1`, the IC50 is 37.4 µM. Under `CC1(C)CC(=O)c2c(nc3ccccc3c2N)C1` stands 71.6 µM; under `O=C(Nc1nnc(-c2ccccn2)o1)c1cccc(Cl)c1`, 114 µM; under `O=C(N/N=C/c1c(O)ccc2ccccc12)c1ccc(CO)nc1`, 87.3 µM. To `CCn1cc(C(=O)O)c(=O)c2cc(F)c(N3CCN(C(=O)Nc4ccccc4)CC3)cc21` belongs 23.3 µM; to `NC1=NC2(CCCCC2)N=C(Nc2ccc(Br)cc2)N1`, 12.7 µM; to `O=C(CCc1ccccc1)NNC(=S)NC(=O)c1ccccc1`, 118 µM. In the case of `O=C(N/N=C/c1cc(Br)ccc1O)c1ccncc1`, the IC50 is 34.9 µM. To `CCCCn1c(NS(=O)(=O)c2ccc(C)cc2)c(S(=O)(=O)c2ccccc2)c2nc3ccccc3nc21` belongs 7.98 µM; to `C[C@H]1c2cccc(O)c2C(O)=C2C(=O)C3(O)C(O)=C(C(N)=O)C(=O)[C@@H](N(C)C)[C@@H]3[C@@H](O)[C@@H]21` (some centres undefined), 2.01 µM; to `CCCCCCCCCCn1c2c(c(=N)c3c1CCC3)CCC2`, 14.7 µM. To `COc1ccc(C(=O)NC(=S)NNC(=O)c2cnccn2)cc1` belongs 92.4 µM; to `CC(C(=O)NC1C=CS(=O)(=O)C1)N1C(=O)/C(=C/c2cccc(Cl)c2)SC1=S` (centres undefined), 68.6 µM. To `CN1C(=O)NC(c2cccc(O)c2)C(C(=O)c2cccs2)C1(O)C(F)(F)F` (centres undefined) belongs 40.3 µM; to `CN1/C(=C\C=C\C2=[N+](C)c3ccc4ccccc4c3C2(C)C)C(C)(C)c2ccccc21`, 5.78 µM. Turning to `CC1CCC(C(C)C)C(OC(=O)Cn2c(COc3ccccc3)[n+](C)c3ccccc32)C1` (centres undefined), the IC50 is 35.1 µM. To `Cc1cc([N+](=O)[O-])cc(/C=N/n2c(C)nc3ccccc3c2=O)c1O` belongs 77.2 µM; to `O=c1ccc2cc3c([nH]c4ccc(Br)cc43)oc-2c1O`, 24.1 µM. With `CCOC(=O)c1c(-c2ccccc2)oc2ccc(OCC(O)CNCCN(C)C)cc12` (centres undefined), the IC50 is 61 µM. Under `CC(Nc1nc(N2CCCCC2)nc2ccccc12)c1ccccc1` (centres undefined) stands 39.2 µM; under `O=C(CSc1ccccn1)Nc1nonc1[N+](=O)[O-]`, 87.3 µM.

For the compound `O=C(Cc1ccccc1)NNC(=S)NC(=O)c1cccs1`, the half-maximal inhibitory concentration (IC50) was 46.5 µM. Turning to `O=C(N/N=C/c1cc([N+](=O)[O-])ccc1O)C(O)(c1ccccc1)c1ccccc1`, the IC50 was 73.4 µM. Under `CC(=O)NC(=S)NNC(=O)c1ccc(Br)cc1` stands 34.9 µM; under `CCCCCCCCCCCCCCCC[N+](C)(C)C`, 24.2 µM. Under `CC(C)(C)CC(C)(C)c1ccc(OCCOCC[N+](C)(C)Cc2ccccc2)cc1` stands 20.4 µM. On to `CCc1ccc(-c2nn(-c3ccccc3)cc2CSC(=N)N)cc1`, for which the 50% inhibitory concentration (IC50) was 32.7 µM. Under `CN(C)C1C(=O)C(C(N)=O)=C(O)C2(O)C(=O)C3=C(O)c4c(O)cccc4C(C)(O)C3CC12` (centres undefined) stands 3.07 µM; under `Cc1ccc(C(C[N+](=O)[O-])n2nc(C)cc2C)cc1` (centres undefined), 75.1 µM; under `C#CCOCCOCCOCCNc1nc(N2CCN(C(=O)CCCCCCCCCCNC(=O)[C@H]([C@@H](C)CC)n3cc(CCCCN=C(N)N)nn3)CC2)nc(N2CCN(C(=O)CCCCCCCCCCNC(=O)[C@H](CO)n3cc(CCCCCN)nn3)CC2)n1`, 34.7 µM. To `Cc1cc(C)n(/N=C/c2cc(Cl)cc(Cl)c2O)c(=O)c1` belongs 137 µM; to `CCCCCCCCCCOC(=O)Cn1c(COc2ccc(C)cc2)[n+](C)c2ccccc21`, 10.5 µM. To `Cc1ccc(-c2csc(N=C(N)N)n2)c(C)c1` belongs 50.1 µM; to `O=c1[nH]c(-c2ccccn2)nc(C(F)(F)F)c1Br`, 70.2 µM; to `CCCCCCCNC(=O)C1(CC2CC(c3ccc(Cl)cc3)=NO2)CCNCC1` (centres undefined), 37.4 µM. Take `COc1ccc2c(c1OC)C(=O)N(c1ccc(C)cc1)C2=O`: the concentration for half-maximal inhibition (IC50) was 143 µM.

For `CCc1cccc2c(C(=O)COC(=O)c3ccc([N+](=O)[O-])s3)c[nH]c12`, the IC50 is 18.8 µM. To `O=S(=O)(Nc1c(S(=O)(=O)c2ccccc2)c2nc3ccccc3nc2n1C1CCCCC1)c1ccccc1` belongs 5.01 µM; to `O=C(CC1NCCc2ccccc21)Nc1ccc(Oc2ccccc2)cc1` (centres undefined), 47.3 µM; to `CCOC(=O)N1CCN(CCC(=O)c2ccc(Cl)cc2)CC1`, 77.2 µM. For `CN(C)CCCNc1c2ccccc2nc2ccccc12`, the IC50 was 34.8 µM. Under `CNC[C@H](Cc1ccccc1)NC[C@@H](Cc1cccc2ccccc12)NCCc1ccc(C)cc1` stands 19.6 µM; under `CCCCCCCCCCCCCCCC[N+](C)(C)CC`, 18.6 µM. Under `Cc1cc(=O)[nH]c(-n2nc(C)cc2C)n1` stands 75.5 µM.

Source of the values: PubChem BioAssay AID1850 (Southern Research Specialized Biocontainment Screening …, 2009).
